The values below come from paper PMC6287396, “Hyperactivation of Oncogenic JAK3 Mutants Depend on ATP Binding to the Pseudokinase Domain” (Frontiers in Oncology, 2018).

For assay [1], the target named is T1, JAK3 JH2 (Homo sapiens, UniProt P52333).
T1 construct: JAK3 JH2 (residues 511–790) was cloned into the pFASTBAC1 vector (Invitrogen) with a C-terminal His6 tag; His6 (C); made in house; host or cells: Spodoptera frugiperda (Sf9) insect cells, baculovirus (pFASTBAC1)
T1 sequence (P52333 511-790): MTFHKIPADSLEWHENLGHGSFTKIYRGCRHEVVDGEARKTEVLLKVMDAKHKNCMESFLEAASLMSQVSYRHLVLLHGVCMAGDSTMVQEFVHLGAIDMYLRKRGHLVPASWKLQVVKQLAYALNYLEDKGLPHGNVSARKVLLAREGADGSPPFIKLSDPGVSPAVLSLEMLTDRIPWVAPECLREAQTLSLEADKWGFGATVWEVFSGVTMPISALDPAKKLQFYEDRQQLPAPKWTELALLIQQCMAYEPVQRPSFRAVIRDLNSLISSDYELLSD
Description: MANT-ATP binding assay (steady-state FRET). As for the experimental part:
The steady-state fluorescence of MANT-labeled ATP was measured as described in Mysore et al. ([34]). Briefly, the fluorescently labeled MANT (2′/3′-(N-methyl-anthraniloyl)-ATP was titrated against 1.5 μM recombinant JAK3 JH2. In addition, the protein was titrated as 0, 0.05, 0.25, 1.25, and […] against 0.25 μM MANT-ATP. FRET signal was measured with QuantaMaster PTI Fluorometer and the data was analyzed using GraphPad Prism version 5.02 and Microsoft Excel. Protein titrations were done in duplicate and in MANT-ATP titration in triplicate.

In assay [2] the target is T2, TYK2 JH2.
T2 construct: TYK2 JH2 564-876-His proteins; His (C)
Set-up: method as in PMID 26359499. The conditions noted are these: TYK2 JH2, with MgCl2; read-out: Kd (MANT-ATP); cited from earlier work.

Assay [3] concerns the target T3, JAK2 JH2.
T3 construct: JAK2 JH2 503-827-His; His (C)
The arrangement: method as in PMID 25825724. The conditions noted are these: JAK2 JH2, with MgCl2; read-out: Kd (MANT-ATP); cited from earlier work.

Assay [4] has as its target T4, JAK1 JH2.
T4 construct: Recombinant JAK1 JH2 553-836-His; His (C)
Set-up: method as in PMID 25825724. As to conditions: JAK1 JH2, with MgCl2; read-out: Kd (MANT-ATP); cited from earlier work.

The target in assay [5] is T1, JAK3 JH2. Description: Differential scanning fluorimetry (thermal shift). As to conditions: for Effect of nucleotide on Tm (ΔTm): JAK3 JH2, nucleotide titration 0.2, 0.5, 1 mM. The class given is binding. As to the method:
(§1) Protein concentration of 3 μM was used for the measurement of the melting temperature (Tm). Reactions were done in the buffer used in the SEC. Addition of other components (ATP, salts) were taken into account by including 2X buffer, if needed. Signal arising from the fluorescent dye Life Technologies SYPRO^TM Orange Protein Gel Stain, 4X working solution from 5000X concentrate in DMSO) was measured with a conventional Real-Time PCR system (Bio-Rad CFX), 1°C per min from 4 to 96°C. Results were transferred and normalized in Microsoft Excel and the Tm was derived from the sigmoidal function using GraphPad Prism version 5.02 for Windows, GraphPad Software, La Jolla California USA, https://www.graphpad.com/.

For another assay, the target named is T5, TYK2 JH2 564-876-His (Homo sapiens, UniProt P29597).
T5 construct: TYK2 JH2 564-876-His proteins; His (C)
As to the kind of experiment: Fluorescence polarization competition assay (ATP vs Bodipy FL JNJ-7706621 tracer). It counts as binding. The conditions noted are these: TYK2 JH2, ATP competing with tracer, with MgCl2. As to the method:
(§2) Fluorescence polarization measurements were performed in black 384-well plates (ProxiPlate-384 F Plus, PerkinElmer) at sample volume of 5 μl/well on PerkinElmer Envision plate reader using 480 nm excitation and 535 nm emission filters. Fluorescent tracer, Bodipy FL labeled JNJ-7706621 [compound 5 in ([35])] was used at 1.5 nM concentration. Recombinant JAK1 JH2 553-836-His, JAK2 JH2 503-827-His, JAK3 JH2 511-790-His, and TYK2 JH2 564-876-His proteins were used at concentrations (2 nM JAK1, 150 nM JAK2, 1 μM JAK3, 20 nM TYK2) dependent on protein-tracer dissociation constants. The assays were performed in a buffer consisting of 20 mM Tris-HCl pH 8.0, 150 mM NaCl, 20% glycerol, 0.01% Brij-35, and 2 mM DTT. ATP was titrated at concentration range of 5 nM−5 μM and fluorescence polarization values obtained were fitted against log[ATP] in GraphPad Prism to yield IC50 values. Assays were performed in triplicate.

In a further assay the target is T6, JAK2 JH2 503-827-His (Homo sapiens, UniProt O60674).
T6 construct: JAK2 JH2 503-827-His; His (C)
The assay is described as above. The class given is binding. As to conditions: JAK2 JH2, ATP competing with tracer, with MgCl2. As to the method: as §2

For the next assay, the target named is T7, JAK3 JH2 511-790-His (Homo sapiens, UniProt P52333).
T7 construct: JAK3 JH2 (residues 511–790) was cloned into the pFASTBAC1 vector (Invitrogen) with a C-terminal His6 tag; His6 (C); made in house; host or cells: Spodoptera frugiperda (Sf9) insect cells, baculovirus (pFASTBAC1)
T7 sequence (P52333 511-790): T1 sequence (P52333 511-790)
Described as above. It counts as binding. The conditions noted are these: JAK3 JH2, ATP competing with tracer, no MgCl2 added. As to the method:
as §2

For another assay, the target named is T8, JAK1 JH2 553-836-His (Homo sapiens, UniProt P23458).
T8 construct: Recombinant JAK1 JH2 553-836-His; His (C)
The description is as above. It counts as binding. As to conditions: JAK1 JH2, ATP competing with tracer, with MgCl2. As to the method:
as §2

Assay [6] deals with T3, JAK2 JH2. Description: Differential scanning fluorimetry (thermal shift). The class given is binding. As to the method:
as §1

Assay [7] has as its system T4, JAK1 JH2. As to the kind of experiment: Differential scanning fluorimetry (thermal shift). As to conditions: JAK1 JH2, 1 mM ATP. The class given is binding. As for the experimental part:
as §1

Assay [8] has as its system T2, TYK2 JH2. As to the kind of experiment: Differential scanning fluorimetry (thermal shift). The class given is binding. As for the experimental part: as §1

T5 sequence (P29597 564-876): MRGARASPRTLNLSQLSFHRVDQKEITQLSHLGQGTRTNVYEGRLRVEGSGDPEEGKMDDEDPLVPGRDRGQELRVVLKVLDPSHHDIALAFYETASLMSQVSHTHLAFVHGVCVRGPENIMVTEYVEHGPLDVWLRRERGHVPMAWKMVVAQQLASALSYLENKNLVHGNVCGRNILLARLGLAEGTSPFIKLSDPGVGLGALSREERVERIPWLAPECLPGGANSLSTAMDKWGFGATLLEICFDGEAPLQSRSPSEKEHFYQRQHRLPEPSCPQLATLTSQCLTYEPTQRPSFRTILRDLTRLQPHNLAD
T8 sequence (P23458 553-836): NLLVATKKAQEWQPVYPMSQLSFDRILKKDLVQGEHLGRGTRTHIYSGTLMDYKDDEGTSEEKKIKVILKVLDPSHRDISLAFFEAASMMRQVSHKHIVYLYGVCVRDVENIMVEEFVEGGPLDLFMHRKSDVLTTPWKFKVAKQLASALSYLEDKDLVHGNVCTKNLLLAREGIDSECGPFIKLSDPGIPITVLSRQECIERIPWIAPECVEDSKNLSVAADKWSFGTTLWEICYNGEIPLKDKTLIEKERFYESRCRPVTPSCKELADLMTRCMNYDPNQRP
T6 sequence (O60674 503-827): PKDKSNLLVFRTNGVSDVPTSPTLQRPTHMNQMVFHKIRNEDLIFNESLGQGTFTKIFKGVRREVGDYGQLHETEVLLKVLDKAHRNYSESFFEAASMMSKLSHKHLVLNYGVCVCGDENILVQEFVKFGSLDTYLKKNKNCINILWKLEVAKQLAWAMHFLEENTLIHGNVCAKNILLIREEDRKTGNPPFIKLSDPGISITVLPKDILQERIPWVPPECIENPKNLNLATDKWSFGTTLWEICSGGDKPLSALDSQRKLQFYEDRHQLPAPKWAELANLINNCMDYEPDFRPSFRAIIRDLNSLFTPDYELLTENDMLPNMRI

As for “2′/3′-(N-methyl-anthraniloyl)-ATP [MANT-ATP]”, the “fold tighter MANT-ATP binding of JAK3 JH2 compared to JAK1 JH2” value on JAK3 JH2 [1] (JAK3 JH2 vs JAK1 JH2) is 6 fold. Moreover, the “fold tighter MANT-ATP binding of JAK3 JH2 compared to JAK2 JH2” value on JAK3 JH2 [1] (JAK3 JH2 vs JAK2 JH2) was found to be 3 fold. Further, the “fold tighter MANT-ATP binding of JAK3 JH2 compared to TYK2 JH2” value at JAK3 JH2 [1] (JAK3 JH2 vs TYK2 JH2) is 30 fold. The Kd on TYK2 JH2 [2] is 15 µM; at JAK2 JH2 [3], 1.3 µM; at JAK1 JH2 [4], 3.1 µM.

`Nc1ncnc2c1ncn2[C@@H]1O[C@H](COP(=O)(O)OP(=O)(O)O)[C@@H](O)[C@H]1O` [ADP]: the “Effect of nucleotide on Tm (ΔTm)” value at JAK3 JH2 [5] was “significantly reduced ΔTm compared to ATP”.

As for `Nc1ncnc2c1ncn2[C@@H]1O[C@H](COP(=O)(O)O)[C@@H](O)[C@H]1O` [AMP], the “Effect of nucleotide on Tm (ΔTm)” value at JAK3 JH2 [5] was “no effect on Tm”.

Turning to `Nc1ncnc2c1ncn2[C@@H]1O[C@H](COP(=O)(O)OP(=O)(O)OP(=O)(O)O)[C@@H](O)[C@H]1O` [ATP], the IC50 at TYK2 JH2 564-876-His amounted to 471 µM; on JAK2 JH2 503-827-His, 102 µM; on JAK3 JH2 511-790-His, 16 µM; on JAK1 JH2 553-836-His, 110 µM. In addition, the “ΔTm (1 mM ATP)” value turned out to be 4.9 °C in the assay on JAK2 JH2 [6] (JAK2 JH2, 1 mM ATP); 3.9 °C with JAK1 JH2 [7]; 0.9 °C in the assay on TYK2 JH2 [8] (TYK2 JH2, 1 mM ATP). Also, the TmATP with JAK2 JH2 [6] (melting temperature of JAK2 JH2 with ATP) was determined as 46 °C; on JAK3 JH2 [5] (melting temperature of JAK3 JH2 with ATP), 41 °C; in the assay with TYK2 JH2 [8] (melting temperature of TYK2 JH2 with ATP), 48 °C. Further, on JAK3 JH2 [5] (50 nM−1 mM ATP titrated to 3 μM JAK3 JH2, read-out: Kd approximated with DSF), the Kd came to 40.4 ± 97.1 µM. Moreover, on JAK3 JH2 [5] (JAK3 JH2, 0.2 mM ATP), the ΔTm came to 8 °C.
